Data as given in BigSolDB 2.1.

O=C(O)c1ccccc1Nc1ccccc1
solubility (mole fraction)
Conditions | in acetone | in acetonitrile | in ethanol | in ethyl acetate | in isopropanol | in methanol | in n-butanol | in n-propanol | in toluene
283.15 K | 0.019 | 0.00147 | 0.00703 | 0.012 | 0.00593 | 0.00331 | 0.00849 | 0.00734 | 0.00238
285.65 K | 0.0202 | 0.00171 | 0.00768 | 0.0133 | 0.00692 | 0.00381 | 0.00972 | 0.00831 | 0.00275
288.15 K | 0.0223 | 0.00197 | 0.00854 | 0.0156 | 0.00805 | 0.00439 | 0.0112 | 0.00975 | 0.00321
290.65 K | 0.0252 | 0.00228 | 0.00958 | 0.0182 | 0.00933 | 0.00521 | 0.013 | 0.0114 | 0.00374
293.15 K | 0.0279 | 0.00268 | 0.0112 | 0.0213 | 0.0107 | 0.0061 | 0.0147 | 0.0132 | 0.00439
295.65 K | 0.0304 | 0.00311 | 0.013 | 0.0235 | 0.0124 | 0.00723 | 0.0167 | 0.0152 | 0.00502
298.15 K | 0.0335 | 0.00373 | 0.0152 | 0.0267 | 0.0144 | 0.00825 | 0.0187 | 0.0172 | 0.00573
300.65 K | 0.0361 | 0.00425 | 0.0171 | 0.0301 | 0.0164 | 0.00944 | 0.0209 | 0.0194 | 0.00648
303.15 K | 0.0399 | 0.00491 | 0.0196 | 0.034 | 0.0184 | 0.0106 | 0.0233 | 0.0216 | 0.00742
305.65 K | 0.0427 | 0.00556 | 0.0219 | 0.0373 | 0.0208 | 0.0119 | 0.0256 | 0.0239 | 0.00841
308.15 K | 0.0465 | 0.00617 | 0.0249 | 0.0414 | 0.0232 | 0.0129 | 0.0283 | 0.0266 | 0.0096
310.65 K | 0.0499 | 0.00695 | 0.0276 | 0.0458 | 0.0254 | 0.0145 | 0.0311 | 0.0292 | 0.0109
313.15 K | 0.0537 | 0.0078 | 0.0311 | 0.0503 | 0.0281 | 0.0164 | 0.0338 | 0.0322 | 0.0124
315.65 K | 0.0582 | 0.00892 | 0.0339 | 0.0555 | 0.0309 | 0.0186 | 0.0367 | 0.035 | 0.014
318.15 K | 0.063 | 0.0102 | 0.0374 | 0.0604 | 0.034 | 0.0212 | 0.0396 | 0.0383 | 0.0155
